In brackets after ≈: the same amount, converted by molar mass.
Assays:
[1] = test system: précurseurs erythrocytaires de la moelle osseuse; assay: BFU-E test (bone marrow erythrocyte precursors); type: cell-based, humaine; conditions: 108 µg/ml, human bone marrow
Excerpt: (§1) Enfin, les produits selon l'invention manifestent un intérêt considérable du fait de leur absence de toxicité à des concentrations élevées à l'égard des précurseurs hématopoietiques de la moelle humaine.
(§2) Il est en effet connu que l'un des problèmes majeurs associés au traitement par certains produits de cette classe, est la toxicité sur les précurseurs erythrocytaires et granulocytaires/macrophagiques de la moelle osseuse, qui se traduit du point de vue clinique dans des sévères anémies et leucopénies [D.D. RICHMAN et al., N. Engl. J. Med., 317, 192-197, (1987). R. YARCHOAN et al., Lancet i, 575-580, (1986)]. Cette toxicité peut être mise en évidence au niveau du laboratoire par des tests in vitro, sur des précurseurs erythrocytaires et granulocytaires/macrophagiques de la moelle osseuse (J.P. SOMMADOSSI et R. CARLISLE, Antimicro. Ag. Chemother., 31, 452-454, (1987). L'étude est mise en oeuvre dans les techniques de D. THIERRY et al., Acta Radiol., 24, 521-526, (1985) et D. METCALF, Hematopoietic Colony Stimulating factors, p 88-89, Elsevier (1984).
(§3) Dans le test CFU-G/M, la concentration inhibitrice de 50% de la formation des clones est de 30 µg/ml.

[2] = test system: transcriptase inverse du virus HIV; assay: Viral multiplication by reverse transcriptase assay on culture supernatant; type: cell-based; conditions: 0,1 µg/cm³
Procedure: Le test est réalisé sur la lignée lymphoblastoïde CEM clone 13. Dans une microplaque de 96 puits on dépose 25 µl/puit d'une solution de produit à tester ou de tampon phosphate isotonique (TPI) dans le cas des contrôles. Les produits sont étudiés à différentes concentrations (souvent 8), à raison de 4 puits par concentration. On ajoute alors 125 µl d'une suspension de cellules CEM dans le milieu RPMI contenant 10 % de sérum de veau foetal, 40 U/ml de pénicilline, 40 µg/ml de streptomycine et 5 µg/ml de polybrène (3500 cellules par puit) et les microplaques sont incubées une heure à 37°C, sous une atmosphère contenant 5 % de gaz carbonique. L'essai est fait en double: une partie sur cellules infectées, pour la détermination de l'activité antivirale et l'autre partie sur cellules non infectées, pour déterminer la cytotoxité des produits. On infecte la première série avec HIV (100 µl par puit d'une suspension de virus LAV-1-BRU contenant 200-300 TCID50) tandis que l'autre série reçoit 100 µl de milieu RPMI tel que défini précédemment. Après 7 jours d'incubation, 175 µl de surnageant sont prélevés et seront utilisés par la suite pour le dosage de la reverse transcriptase. La viabilité cellulaire est déterminée selon une modification de la technique décrite par R. PAUWELS et coll., J. Virol. Meth., 20, 309-321 (1988). […]

[3] = test system: précurseurs granulocytaires/macrophagiques de la moelle osseuse; assay: CFU-G/M test (bone marrow granulocyte/macrophage precursors, clone formation); type: cell-based, humaine; conditions: CFU-GM, human bone marrow, read-out: concentration inhibitrice de 50% de la formation des clones
Excerpt: as §1, §2, §3

virus HIV (LAV-1-BRU) = assay: microbe, parasite or virus in culture; type: cell-based; conditions: for Cellules infectées densité optique DO 600: control (0 µg/ml) 0.293
Procedure: (§4) Dans ce qui suit on décrit les résultats sur l'effet cytopathogène et la multiplication du virus HIV dans une lignée cellulaire permissive (cellules lymphoblastoïdes humaines CEM).
(§5) Le test est réalisé sur la lignée lymphoblastoïde CEM clone 13. Dans une microplaque de 96 puits on dépose 25 µl/puit d'une solution de produit à tester ou de tampon phosphate isotonique (TPI) dans le cas des contrôles. Les produits sont étudiés à différentes concentrations (souvent 8), à raison de 4 puits par concentration. On ajoute alors 125 µl d'une suspension de cellules CEM dans le milieu RPMI contenant 10 % de sérum de veau foetal, 40 U/ml de pénicilline, 40 µg/ml de streptomycine et 5 µg/ml de polybrène (3500 cellules par puit) et les microplaques sont incubées une heure à 37°C, sous une atmosphère contenant 5 % de gaz carbonique. L'essai est fait en double: une partie sur cellules infectées, pour la détermination de l'activité antivirale et l'autre partie sur cellules non infectées, pour déterminer la cytotoxité des produits. On infecte la première série avec HIV (100 µl par puit d'une suspension de virus LAV-1-BRU contenant 200-300 TCID50) tandis que l'autre série reçoit 100 µl de milieu RPMI tel que défini précédemment. Après 7 jours d'incubation, 175 µl de surnageant sont prélevés et seront utilisés par la suite pour le dosage de la reverse transcriptase. La viabilité cellulaire est déterminée selon une modification de la technique décrite par R. PAUWELS et coll., J. Virol. Meth., 20, 309-321 (1988).
(§6) Les puits, contenant encore les cellules (infectées ou non infectées), reçoivent 10 µl d'une solution de MTT (méthylthiazoletétrazolium) à 5 mg/ml dans du tampon phosphate isotonique. Pendant une période d'incubation de 4 heures, le MTT est converti en un sel de formazan (bleu) à l'intérieur des cellules vivantes et proportionnellement à leur nombre, alors que rien n'apparaît dans les puits ne contenant plus que des cellules mortes. On ajoute alors 120 µl d'isopropanol (contenant 0,04 mole/l d'acide chlorhydrique) et les microplaques sont agitées jusqu'à la solubilisation du bleu de formazan. […]
(§7) Dans ces conditions les cellules infectées sont lysées à environ 60-70 % par rapport aux cellules non infectées. On établit la concentration du produit qui inhibe l'effet cytopathogène du virus de 50 % (CE50). On détermine également celle qui inhibe de 50 % la croissance des cellules non infectées (CC50). Le rapport entre CC50 et CE50 est défini comme l'indice de sélectivité antivirale i.

[4] = Cytotoxicity on non-infected CEM cells (MTT viability); type: cell-based, humaines; conditions: human; non-infected CEM cells, 7 days; read-out: CC50 (concentration qui inhibe de 50 % la croissance des cellules non infectées)
Procedure: as §4, §5, §6, §7

[5] = test system: lignée lymphoblastoïde CEM clone 13, cellules non infectées; assay: as above; type: cell-based, humaines; conditions: 7 days, control (0 µg/ml) 0.954
Procedure: as §4, §5, §6, §7

Cc1cn([C@H]2C[C@H](N=[N+]=[N-])[C@@H](CO)O2)c(=O)n(N)c1=O [Exemple 1, azido-3′ amino-3 désoxy-3′ thymidine]
toxicité dans le test BFU-E [1]: dépourvu de toxicité | activité de la transcriptase inverse, coups par minute (cpm) ([2]; untreated infected cultures 204363 cpm): 44558 cpm | inhibition at 0.1 µg/mL ([2]; Human immunodeficiency virus 1, CCRF-CEM, 168 h, culture supernatant after 7 days, read-out: % d'inhibition (reverse transcriptase du virus HIV)): 80% | IC50 [3]: 30 µg/mL (≈ 106 µM) | Cellules infectées densité optique DO 600 (virus HIV (LAV-1-BRU); 0.0003 µg/ml, 7 days): 0.311 | Cellules infectées densité optique DO 600 (virus HIV (LAV-1-BRU); 0.001 µg/ml, 7 days): 0.359 | Cellules infectées densité optique DO 600 (virus HIV (LAV-1-BRU); 0.003 µg/ml, 7 days): 0.456 | Cellules infectées densité optique DO 600 (virus HIV (LAV-1-BRU); 0.01 µg/ml, 7 days): 0.565 | Cellules infectées densité optique DO 600 (virus HIV (LAV-1-BRU); 0.03 µg/ml, 7 days): 0.577 | Cellules infectées densité optique DO 600 (virus HIV (LAV-1-BRU); 0.1 µg/ml, 7 days): 0.596 | Cellules infectées densité optique DO 600 (virus HIV (LAV-1-BRU); 0.3 µg/ml, 7 days): 0.838 | Cellules infectées densité optique DO 600 (virus HIV (LAV-1-BRU); 1 µg/ml, 7 days): 0.926 | Cellules infectées densité optique DO 600 (virus HIV (LAV-1-BRU); 3 µg/ml, 7 days): 0.865 | Cellules infectées densité optique DO 600 (virus HIV (LAV-1-BRU); 10 µg/ml, 7 days): 0.441 | Cellules infectées densité optique DO 600 (virus HIV (LAV-1-BRU); 30 µg/ml, 7 days): 0.007 | EC50 (virus HIV (LAV-1-BRU); Human immunodeficiency virus 1, CCRF-CEM, 168 h, infected CEM cells, 7 days, read-out: CE50 (concentration qui inhibe l'effet cytopathogène du virus de 50 %)): 0.01 µg/mL (≈ 0.0354 µM) | indice de sélectivité i = CC50/CE50 (virus HIV (LAV-1-BRU); human, cem cells, 168 h): 1000 | CC50 at 168 h [4]: 10 µg/mL (≈ 35.4 µM) | cellules non infectées densité optique DO 600 ([5]; 0.0003 µg/ml): 0.935 | cellules non infectées densité optique DO 600 ([5]; 0.001 µg/ml): 0.888 | cellules non infectées densité optique DO 600 ([5]; 0.003 µg/ml): 0.882 | cellules non infectées densité optique DO 600 ([5]; 0.01 µg/ml): 0.884 | cellules non infectées densité optique DO 600 ([5]; 0.03 µg/ml): 0.901 | cellules non infectées densité optique DO 600 ([5]; 0.1 µg/ml): 0.928 | cellules non infectées densité optique DO 600 ([5]; 0.3 µg/ml): 0.931 | cellules non infectées densité optique DO 600 ([5]; 1 µg/ml): 0.909 | cellules non infectées densité optique DO 600 ([5]; 3 µg/ml): 0.892 | cellules non infectées densité optique DO 600 ([5]; 10 µg/ml): 0.368 | cellules non infectées densité optique DO 600 ([5]; 30 µg/ml): 0.004
